Measurements from US7423008B2, “Derivatives of mithramycin and methods of making and uses thereof” (University of Kentucky Research Foundation, priority 2004, dated 2008).
pIC50: −log10 of the molar value.

Tests used:
Lung (NCI-H460) = assay: Proliferation inhibition assay (sulforhodamin B uptake), lung cells; type: cell-based
Method: (§1) The experiment was performed by Biotecon, Berlin. It measures the uptake of sulforhodamin B (SRB), which is dependent on the cellular protein quantities, and can be performed in 96-well microtiter plates according to the protocol published by Boyd et al. (NCI). The SRB assay is a rapid and sensitive method to measure drug-induced cytotoxicity. Briefly, cells will be incubated with and without drug for 72 hours (drugs will be added after 24 hours), fixed with TCA (trichloroacetic acid), and stained for 30 minutes using a 0.4% (w/v) SRB solution in […]. Cultures will then be rinsed with 1% acetic acid, residual wash solution will be removed and air-dried. Bound dye will be solubilized with 10 mM unbuffered Tris base (pH 10.5) for 5 min., and the optical density (OD) will be measured with amicrotiter plate reader at 564 nm. (Skehan, P. et al., “New calorimetric cytotoxicity assay for anticancer-drug screening,” Journal of the National Cancer Institute, 1990. 82(13): p. 1107-1112).

CNS (SF-268) = assay: Proliferation inhibition assay (sulforhodamin B uptake), CNS cells; type: cell-based
Method: as §1

Breast (MCF-7) = assay: Proliferation inhibition assay (sulforhodamin B uptake), breast cells; type: cell-based; conditions: concentration 1 × 10^−5 molar
Method: as §1

Melanoma cell lines = assay: Sulforhodamine B assay, 60 cell line panel: melanoma; type: cell-based, human; conditions: for GI50: Homo sapiens, 60 cell, 8 cell lines, read-out: Average Log(GI50) (converted); for AIF (activity improvement factor, 10^Δ1−x): versus 1
Method: (§2) The cytotoxicity of Mithramycin-SK and demycarosyl-mithramycin-SK were assessed in a panel of 60 cell lines using a sulforhodamine B assay. It is active against a variety of tumor cell lines in the concentration range of 10^−5 to 10^−8 molar. Cell lines were inoculated into a series of 96-well microliter plates with varying seeding densities depending on the growth characteristics of the particular cell lines. Following a 24 hour drug-free incubation, mithramycin-SK was added routinely at five 10-fold dilutions with maximum concentration of […]. After 48 hours of drug exposure, the change in protein stain optical density allowed the inhibition of cell growth to be analyzed.

Leukemia cell lines = assay: Sulforhodamine B assay, 60 cell line panel: leukemia; type: cell-based, human; conditions: for GI50: Homo sapiens, 60 cell, 5 cell lines, read-out: Average Log(GI50) (converted); for AIF (activity improvement factor, 10^Δ1−x): versus 1
Method: as §2

[1] = test system: Prostrate cancer cell lines; assay: Sulforhodamine B assay, 60 cell line panel: prostate; type: cell-based, human; conditions: for GI50: Homo sapiens, 60 cell, 2 cell lines, read-out: Average Log(GI50) (converted); for AIF (activity improvement factor, 10^Δ1−x): versus 1
Method: as §2

NSCLC cell lines = assay: Sulforhodamine B assay, 60 cell line panel: NSCLC; type: cell-based, human; conditions: for GI50: Homo sapiens, 60 cell, 8 cell lines, read-out: Average Log(GI50) (converted); for AIF (activity improvement factor, 10^Δ1−x): versus 1
Method: as §2

CNS cancer cells = assay: Sulforhodamine B assay, 60 cell line panel: CNS; type: cell-based, human; conditions: for GI50: Homo sapiens, 60 cell, 5 cell lines, read-out: Average Log(GI50) (converted); for AIF (activity improvement factor, 10^Δ1−x): versus 1
Method: as §2

[2] = test system: Ovarian cancer cell lines; assay: Sulforhodamine B assay, 60 cell line panel: ovarian; type: cell-based, human; conditions: for GI50: Homo sapiens, 60 cell, 6 cell lines, read-out: Average Log(GI50) (converted); for AIF (activity improvement factor, 10^Δ1−x): versus 1
Method: as §2

Renal cancer cell lines = assay: Sulforhodamine B assay, 60 cell line panel: renal; type: cell-based, human; conditions: for GI50: Homo sapiens, 60 cell, 8 cell lines, read-out: Average Log(GI50) (converted); for AIF (activity improvement factor, 10^Δ1−x): versus 1
Method: as §2

Colon cancer cell lines = assay: Sulforhodamine B assay, 60 cell line panel: colon; type: cell-based, human; conditions: for GI50: Homo sapiens, 60 cell, 7 cell lines, read-out: Average Log(GI50) (converted); for AIF (activity improvement factor, 10^Δ1−x): versus 1
Method: as §2

Breast cancer cell lines = assay: Sulforhodamine B assay, 60 cell line panel: breast; type: cell-based, human; conditions: for GI50: Homo sapiens, 60 cell, 8 cell lines, read-out: Average Log(GI50) (converted); for AIF (activity improvement factor, 10^Δ1−x): versus 1
Method: as §2

Melanoma = assay: Neutral red assay, melanoma; type: cell-based; conditions: for GI50: read-out: Average Log(GI50) (converted)
From the text: (§3) Mithramycin-SK was particularly active against melanoma, leukemia, and CNS cancer cells (log(GI50) values of −7.64, −7.59, and −7.61, respectively).

[3] = test system: non-tumorous mouse fibroblast cells (NIH 3T3); assay: Neutral red toxicity assay on non-tumorous fibroblasts; type: cell-based; conditions: for pIC50: NIH3T3, neutral red
Method: Mithramycin-SK and demycarosyl-mithramycin-SK were also tested in a neutral red toxicity assay. In this experiment, non-tumorous mouse fibroblast cells were used (NIH 3T3).
as §3

Breast carcinoma = assay: Neutral red assay, breast carcinoma; type: cell-based; conditions: for GI50: read-out: Average Log(GI50) (converted)
From the text: as §3

Squamous carcinoma = assay: Neutral red assay, squamous carcinoma; type: cell-based; conditions: for GI50: read-out: Average Log(GI50) (converted)
From the text: as §3

Lung carcinoma = assay: Neutral red assay, lung carcinoma; type: cell-based; conditions: for GI50: read-out: Average Log(GI50) (converted)
From the text: as §3

[4] = test system: squamous, melanoma, lung, and breast carcinomas; assay: Neutral red uptake analysis of carcinomas, overall; type: cell-based; conditions: cells not given
From the text: as §3

[5] = test system: 60 human cancer cell lines; assay: Sulforhodamine B cytotoxicity assay, whole panel of 60 cell lines (NCI); type: cell-based
Method: The mithramycin SK has antitumor activity substantially higher than that of MTM and is particularly active against melanoma, leukemia and CNS cancer cells.
as §2

[6] = concentration 1 × 10^−4.6 molar
[7] = mouse 3T3 fibroblast (nontumor) cells

SMILES | Percent Growth in 48 Hours, Lung (NCI-H460) (Lung (NCI-H460); concentration 1 × 10^−5 molar) [%] | Percent Growth in 48 Hours, Breast (MCF-7) (Breast (MCF-7)) [%] | Percent Growth in 48 Hours, CNS (SF-268) (CNS (SF-268); concentration 1 × 10^−5 molar) [%] | GI50 (Melanoma cell lines) [nM] | AIF (activity improvement factor, 10^Δ1−x) (Melanoma cell lines) | GI50 (Leukemia cell lines) [nM] | AIF (activity improvement factor, 10^Δ1−x) (Leukemia cell lines) | GI50 [1] [nM] | AIF (activity improvement factor, 10^Δ1−x) [1] | GI50 (NSCLC cell lines) [nM] | AIF (activity improvement factor, 10^Δ1−x) (NSCLC cell lines) | GI50 (CNS cancer cells) [nM] | AIF (activity improvement factor, 10^Δ1−x) (CNS cancer cells) | GI50 [2] [nM] | AIF (activity improvement factor, 10^Δ1−x) [2] | GI50 (Renal cancer cell lines) [nM] | AIF (activity improvement factor, 10^Δ1−x) (Renal cancer cell lines) | GI50 (Colon cancer cell lines) [nM] | AIF (activity improvement factor, 10^Δ1−x) (Colon cancer cell lines) | GI50 (Breast cancer cell lines) [nM] | also measured
CO[C@@H]1C(=O)C(C(C)=O)=C(O)[C@@]2(O[C@H]3C[C@@H](O)[C@H](O)[C@@H](C)O3)C(=O)c3c(cc4cc(O)cc(O)c4c3O)C[C@@H]12 [Premithramycin A1, reference compound] |  |  |  |  |  |  |  |  |  |  |  |  |  |  |  |  |  |  |  |  | Percent Growth in 48 Hours, Lung (NCI-H460) (Lung (NCI-H460); [6]): 68%; Percent Growth in 48 Hours, CNS (SF-268) (CNS (SF-268); [6]): 93%
CO[C@@H]1C(=O)C(C(C)=O)=C(O)[C@@]2(O[C@H]3C[C@@H](O[C@H]4C[C@@H](O[C@H]5C[C@](C)(O)[C@H](O)[C@@H](C)O5)[C@@H](O)[C@@H](C)O4)[C@H](O)[C@@H](C)O3)C(=O)c3c(cc4cc(O[C@H]5C[C@@H](O[C@H]6C[C@@H](O)[C@H](O)[C@@H](C)O6)[C@H](O)[C@@H](C)O5)c(C)c(O)c4c3O)C[C@@H]12 [Premithramycin B, reference compound] | >100 | >100 | >100 |  |  |  |  |  |  |  |  |  |  |  |  |  |  |  |  |  | 
COC(C(O)C(C)=O)[C@@H]1Cc2cc3cc(OC4CC(OC5CC(O)C(O)C(C)O5)C(O)C(C)O4)c(C)c(O)c3c(O)c2C(=O)[C@H]1OC1CC(OC2CC(O)C(O)C(C)O2)C(O)C(C)O1 (stereo partly drawn) [Demycarosyl-Mithramycin-SK, Demycarosyl-mithramycin-SK] | 5 | 22 | 47 | 4270 | 0.04 | 2820 | 0.08 | 5620 | 0.02 | 5010 | 0.04 | 5010 | 0.03 | 5890 | 0.04 | 7240 | 0.03 | 4470 | 0.05 | 7080 | AIF (activity improvement factor, 10^Δ1−x) (Breast cancer cell lines): 0.04
CO[C@H](C(=O)[C@@H](O)[C@@H](C)O)[C@@H]1Cc2cc3cc(OC4CC(OC5CC(O)C(O)C(C)O5)C(O)C(C)O4)c(C)c(O)c3c(O)c2C(=O)[C@H]1OC1CC(OC2CC(OC3CC(C)(O)C(O)C(C)O3)C(O)C(C)O2)C(O)C(C)O1 (stereo partly drawn) [Mithramycin] | 12 | 12 |  | 191 |  | 224 |  | 126 |  | 186 |  | 166 |  | 251 |  | 186 |  | 224 |  | 257 | GI50 (Melanoma): 8910 nM; pIC50 [3, 7]: 7.89 to 8.46; GI50 (Breast carcinoma): 11200 nM; GI50 (Squamous carcinoma): 9120 nM; GI50 (Lung carcinoma): 12000 nM
COC(C(O)C(C)=O)[C@@H]1Cc2cc3cc(OC4CC(OC5CC(O)C(O)C(C)O5)C(O)C(C)O4)c(C)c(O)c3c(O)c2C(=O)[C@H]1OC1CC(OC2CC(OC3CC(C)(O)C(O)C(C)O3)C(O)C(C)O2)C(O)C(C)O1 (stereo partly drawn) [Mithramycin-SK, mithramycin-SK] | 0.1 | 0.2 | 1 | 22.9 | 8.3 | 25.7 | 8.7 | 33.1 | 3.8 | 42.7 | 4.4 | 24.5 | 6.8 | 29.5 | 8.5 | 51.3 | 3.6 | 47.9 | 4.7 | 1290 | GI50 (Melanoma): 562 nM; AIF (activity improvement factor, 10^Δ1−x) (Melanoma; versus 1): 15.8; toxicity (concentration still without toxicity) ([3]; NIH 3T3, after 24 hours of incubation): > 200 µg/mL; pIC50 [3, 7]: 4.71; toxicity compared to parent compound MTM ([3]; in vitro toxicity assay): two orders of magnitude lesser toxicity; fold less toxic than MTM ([3]; mouse 3T3 fibroblast (nontumor) cells, ratio of IC50 values): more than 1500 fold; GI50 (Breast carcinoma): 182 nM; AIF (activity improvement factor, 10^Δ1−x) (Breast carcinoma; versus 1): 61.6; GI50 (Squamous carcinoma): 1020 nM; AIF (activity improvement factor, 10^Δ1−x) (Squamous carcinoma; versus 1): 8.9; AIF (activity improvement factor, 10^Δ1−x) (Breast cancer cell lines): 0.2; concentrations revealing antiproliferative activity [4]: < 1 µg/mL; activity, times higher than that of MTM ([5]; compilation of the average log(GI50) values): up to 9 times; antitumor activity compared to parent compound MTM ([5]; initial in vitro anticancer assays by the NCI, 60 human cancer cell lines): up to two orders of magnitude better antitumor activity; GI50 (Lung carcinoma): 132 nM; AIF (activity improvement factor, 10^Δ1−x) (Lung carcinoma; versus 1): 91.2
